Tests used:
Cavia porcellus [1] = species on record: Cavia porcellus; test: Inhibitory effect of compound was measured for platelet aggregation in guinea pig blood; assay type: functional, organism-based
Cavia porcellus [2] = species on record: Cavia porcellus; test: Inhibitory effect of compound was measured for arterial contraction in guinea pig; assay type: functional, organism-based

IC50 (Cavia porcellus [1]) [µM] | IC50 (Cavia porcellus [2]) [µM] | Compound
5.4 | > 10 | CO[C@@H]1[C@H](N(C)C)CC2O[C@]1(C)n1c3ccccc3c3c4c(c5c6ccccc6n2c5c31)C(=O)OC4
6.8 | 30 | CN[C@@H]1CC2O[C@@](C)([C@@H]1OC)n1c3ccccc3c3c(CO)c(CO)c4c5ccccc5n2c4c31
6.8 | > 30 | CN[C@@H]1CC2O[C@@](C)([C@@H]1OC)n1c3ccccc3c3c4c(c5c6ccccc6n2c5c31)C(=O)OC4
0.4 | 3 | CN[C@@H]1CC2O[C@@](C)([C@@H]1OC)n1c3ccc(O)cc3c3c4c(c5c6cc(O)ccc6n2c5c31)C(=O)OC4

Source: ChEMBL document CHEMBL1129139, “Synthesis and activity of staurosporine analogs with a lactone functionality” (Bioorg Med Chem Lett, 1996)
